Measurements as given in paper PMC12406258, “Uncovering the Unusual Inhibition Mechanism of a Trypanosome Alternative Oxidase Inhibitor Displaying Broad-Spectrum Activity against African Animal Trypanosomes” (Journal of Medicinal Chemistry, 2025).
Several values for one entry are separate records, joined by “and”; a condition that tells them apart may be missing. Equal entries are not always repeated. Where two headings read alike, the source gives them in different places.

Legend:
[1] = target: T1, recombinant TAO (ΔMTS rTAO) (Trypanosoma brucei brucei, UniProt Q26710); conditions: ref reported earlier, cited from earlier work
T1 construct: […]; SUMO (Small Ubiquitin-related Modifier) fusion from the expression system; made in house

[2] = target: T1, recombinant TAO (ΔMTS rTAO); conditions: ref earlier reports; cited from earlier work
[3] = target: T1, recombinant TAO (ΔMTS rTAO); assay: Inhibition of ubiquinol oxidase activity of purified recombinant TAO; format: biochemical, T. brucei
Experimental: This physiologically relevant rTAO enzyme was used throughout this work and in this experiment to study the inhibitory activity of 1.
As previously described, the Ubiquinol oxidase activity measurement was carried out using recombinant TAO lacking the mitochondrial targeting signal (ΔMTS). […] The reaction was carried out in a 1 cm cuvette for 2 min using a V-630 Jasco UV–vis spectrophotometer (Jasco Corporation, Tokyo, Japan). Briefly, the procedure involves preincubating 250 ng of the enzyme for 2 min in a 50 mM Tris-HCl (pH 7.3) buffer containing the detergent octaethylene glycol monododecylether (0.05% (w/v)) in a total reaction volume of 1 mL at 25 °C. […] For the inhibition reaction, 250 ng of the enzyme was preincubated with varying inhibitor concentrations for 2 min using the same buffer before the substrate was added. […] This was achieved using the same protocol but without TAO. […] The residual activities were plotted against the corresponding inhibitor concentration in a GraphPad Prism-9 software to obtain the IC50 value.

T. brucei aqp1-3 null = assay: microbe, parasite or virus in culture; format: cell-based, T. b. brucei; conditions: Trypanosoma brucei, read-out: aqp1-3 null EC50
Experimental: (§1) Other Trypanosoma species used in this study include T. evansi AntTat 3/3 (Wild-type); and T. equiperdum BoTat 1 (Bordeaux trypanozoon antigenic type 1) P (wild-type). All the trypanosomes were used only as bloodstream trypomastigotes and cultured in the standard Hirumi’s Modified Iscove’s medium #9 (HMI-9), supplemented with 10% heat-inactivated Fetal Bovine Serum (FBS), 14 μL/L β-mercaptoethanol, and 3.0 g sodium hydrogen carbonate per liter of medium (pH 7.4). Trypanosomes were cultured in vented flasks at 37 °C in a 5% CO2 atmosphere.
(§2) Briefly, this protocol involves preparing a 96-well cell culture plate with a 100 μL serially diluted test compound (200 μM top concentration) in HMI-9 + 10% FBS (24 wells per control drug or test compound, with the 24th well serving as drug-free). This is followed by adjusting the cell density of mid-log-phase trypanosome cultures to the required concentration of 2 × 10^5 cells/mL (2 × 10^4 cells/well). […] All incubations were carried out at 37 °C with 5% CO2. […] EC50 values were calculated using GraphPad Prism 9.0 software via nonlinear regression with an equation for a sigmoidal dose–response curve with variable slope (GraphPad Software Inc., San Diego, CA, USA).

STIB900 mouse model = tested on: STIB900 mouse model; set-up: method as in previous studies; conditions: 24 h after the last treatment, 4 × 10 mg/kg ip; ref previous studies; cited from earlier work
[4] = set-up: method as in previous studies; conditions: ref previous studies, cited from earlier work
[5] = tested on: T. b. brucei WT (s427) trypomastigotes; assay: microbe, parasite or virus in culture; format: cell-based; conditions: Trypanosoma brucei
Experimental: as §1, §2

T. evansi WT = assay: Resazurin-based drug sensitivity assay, T. evansi WT; format: cell-based
Experimental: as §1, §2

T. equiperdum WT = assay: Resazurin-based drug sensitivity assay, T. equiperdum WT; format: cell-based; conditions: Trypanosoma equiperdum
Experimental: as §1, §2

T. brucei B48 = assay: microbe, parasite or virus in culture; format: cell-based, T. b. brucei; conditions: Trypanosoma brucei, read-out: T. brucei B48 EC50
Experimental: as §1, §2

T. congolense WT = assay: Drug sensitivity assay, T. congolense WT bloodstream forms; format: cell-based; conditions: Trypanosoma congolense
Experimental: The susceptibilities of trypanosomes to compound 1 were determined as previously described using the resazurin (Alamar Blue) assay. Briefly, this protocol involves preparing a 96-well cell culture plate with a 100 μL serially diluted test compound (200 μM top concentration) in HMI-9 + 10% FBS (24 wells per control drug or test compound, with the 24th well serving as drug-free). This is followed by adjusting the cell density of mid-log-phase trypanosome cultures to the required concentration of 2 × 10^5 cells/mL (2 × 10^4 cells/well). Then, 100 μL of the adjusted cell density/culture was added to all 24 wells in the plate, then incubating trypanosomes and test compound for 48 h followed by the addition of 20 μL filter-sterilized resazurin solution prepared by adding 25 mg resazurin sodium salt to 200 mL filter-sterilized PBS. This was followed by a further 24 h of incubation. All incubations were carried out at 37 °C with 5% CO2. […] Fluorescence was measured in the 96-well plates with a FLUOstar Optima (BMG Labtech, Durham, NC, USA) at wavelengths of 544 nm for excitation, 590 for emission, and a gain of 1250. EC50 values were calculated using GraphPad Prism 9.0 software via nonlinear regression with an equation for a sigmoidal dose–response curve with variable slope (GraphPad Software Inc., San Diego, CA, USA).

T. b. brucei SUR10 = assay: microbe, parasite or virus in culture; format: cell-based; conditions: Trypanosoma brucei, read-out: SUR10 EC50
[6] = read-out: rTAO IC50 (supplementary csv, compounds 4, 6, 8-10, 12), IC50 (µM)
[7] = read-out: IC50 against rTAO, activity against TAO reported earlier

T1 sequence (Q26710 26-329, stated change not applied): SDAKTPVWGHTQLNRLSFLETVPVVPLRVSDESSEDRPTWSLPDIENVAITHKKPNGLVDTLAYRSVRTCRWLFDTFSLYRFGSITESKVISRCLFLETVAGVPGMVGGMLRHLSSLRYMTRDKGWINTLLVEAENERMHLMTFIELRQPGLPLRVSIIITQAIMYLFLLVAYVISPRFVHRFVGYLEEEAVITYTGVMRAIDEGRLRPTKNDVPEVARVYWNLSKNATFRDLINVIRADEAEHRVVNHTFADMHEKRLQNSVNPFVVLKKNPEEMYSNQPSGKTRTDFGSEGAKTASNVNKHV

In the case of `Cc1cc(O)ccc1C(=O)OCCCCCCCCCCCCCC[n+]1cccc2ccccc21.[Br-]` [Compound 6], the IC50 [1, 6] is listed as 0.03 ± 0.005 µM and the “Type of inhibition of TAO” value [2] is listed as “competitive”.
With `Cc1cc(O)ccc1C(=O)CCCCCCCCCCCCCCC[P+](c1ccccc1)(c1ccccc1)c1ccccn1.[Br-]` [Compound 3] the IC50 [3] was over 5000 nM and the “Inhibition of TAO at the highest concentration tested” value ([3]; 5 μM) was “did not inhibit”.
With `O=C(NO)c1ccccc1O` [SHAM, Salicylhydroxamic acid] the EC50 (T. brucei aqp1-3 null) was 6880 ± 110 nM.
In the case of `C/C(=C\Cc1c(O)c(Cl)c(C)c(C=O)c1O)CC/C=C(\C)[C@@H]1CC(=O)C(C)(C)O1` [AF, Ascofuranone, reference compound], the “Type of inhibition of TAO” value [2] is given as “competitive”.
For `Cc1cc(O)cc(O)c1C(=O)OCCCCCCCCCCCCCC[n+]1cccc2ccccc21.[Br-]` [Compound 9], the IC50 [1, 6] is given as 0.104 ± 0.011 µM, the Reduction of parasitemia (STIB900 mouse model) is given as 95% and the “Phase 2 metabolism” value [4] is given as “lack of phase 2 metabolism”.
Compound `N=C(N)c1ccc(OCCCCCOc2ccc(C(=N)N)cc2)cc1` [Pent., Pentamidine isethionate] has an EC50 ([5]; read-out: T. b. brucei WT (+5 mM glycerol) EC50, incubated in the presence of 5 mM glycerol) of 6.2 ± 1.7 nM, an EC50 ([5]; s427, no glycerol, n ≥ 4, read-out: T. b. brucei WT (no glycerol) EC50) of 4.2 ± 0.8 nM and an EC50 (T. evansi WT) of 5.1 ± 2.1 nM. For the same compound, the EC50 (T. equiperdum WT) was 8.1 ± 1.1 nM, the EC50 (T. brucei B48) was 1020 ± 200 nM and the EC50 (T. brucei aqp1-3 null) was 51.4 ± 11.8 nM.
In the case of `Cc1cc[n+](CCCCCCCCCCCCCCOC(=O)c2c(C)cc(O)cc2O)cc1` [Compound 10], the IC50 [1, 6] is listed as over 5 µM.
In the case of `Cc1cc(O)cc(O)c1C(=O)OCCCCCCCCCCCCCC[P+](c1ccccc1)(c1ccccc1)c1ccccc1.[Br-]` [Compound 8], the IC50 [1, 7] is given as ~0.08 µM and 0.088 µM, the “Type of inhibition of TAO” value [2] is given as “competitive” and the Reduction of parasitemia (STIB900 mouse model) is given as 95%. The “Half-life (phase 2 metabolism)” value ([4]; S9 fraction and cofactor UDPGA) was “approximately 2 h”.
For `Cc1cc(O)ccc1C(=O)OCCCCCCCCCCCCCC[P+](c1ccccc1)(c1ccccc1)c1ccccc1` [Compound 4], the IC50 [1, 7] is given as 0.081 µM and ~0.08 µM.
`N=C(N)c1ccc(/N=N/Nc2ccc(C(=N)N)cc2)cc1` [Dim., Diminazene aceturate] showed an EC50 ([5]; read-out: T. b. brucei WT (+5 mM glycerol) EC50) of 81 ± 13 nM, an EC50 ([5]; read-out: T. b. brucei WT (no glycerol) EC50) of 65 ± 21 nM and an EC50 (T. evansi WT) of 51.4 ± 12 nM. For the same compound, the EC50 (T. equiperdum WT) was 33.2 ± 10 nM, the EC50 (T. congolense WT) was 252 ± 18 nM and the EC50 (T. brucei B48) was 1220 ± 20 nM.
`Cc1cc(O)cc(O)c1C(=O)OCCCCCCCCCCCCCC[P+](c1ccccc1)(c1ccccc1)c1ccccn1` [Compound 2, {14-[(2,4-Dihydroxy-6-methylbenzoyl)-oxy]-tetradecyl}-diphenyl(pyridin-2-yl)-Phosphonium Bromide] gave an IC50 [3] of 1600 nM.
`Cc1ccc(C(=O)Nc2ccc(S(=O)(=O)O)c3cc(S(=O)(=O)O)cc(S(=O)(=O)O)c23)cc1NC(=O)c1cccc(NC(=O)Nc2cccc(C(=O)Nc3cc(C(=O)Nc4ccc(S(=O)(=O)O)c5cc(S(=O)(=O)O)cc(S(=O)(=O)O)c45)ccc3C)c2)c1` [Suramin, reference compound] gave an EC50 (T. b. brucei SUR10) of 190 ± 20 nM.
For `Cc1c(Cl)c(O)c(Cl)c(O)c1C(=O)OCCCCCCCCCCCCCC[P+](c1ccccc1)(c1ccccc1)c1ccccc1` [Compound 7, {14-[(3,5-Dichloro-2,4-dihydroxy-6-methylbenzoyl)-oxy]-tetradecyl}-Triphenylphosphonium Bromide], the IC50 [3] was 160 nM.
